The record followed here is US9980907B2, “Thermolabile liposome with a controlled release temperature” (Max-Planck-Gesellschaft zur Förderung der Wissenschaften …, priority 2002, dated 2018).

The nature of the data set: main transition temperature (TM) of phosphatidylcholines. The format is physicochemical. To be noted: phosphatidylcholine; acyl chains on positions 1 and 2 of glycero-3-phosphocholine or 1 and 3 of glycero-2-phosphocholine. The method, then:
The abovementioned preferred composition of the liposome according to the invention can be tailor-made for other temperature ranges by choice of components with the main transition temperature suitable in each case. In table 1, the main transition temperatures (TM) of phosphatidylcholines whose main transition temperatures lie in the range from 0 to 80° C. are indicated.
With `CCCCCCCCCCCCCCCCCC(=O)OCC(COP(=O)([O-])OCC[N+](C)(C)C)OC(=O)CCCCCCCCCCC` (stereo not drawn) [1-stearoyl-2-lauroyl-], the “TM (main transition temperature)” value was determined as 17 °C.
Regarding `CCCCCCCCCCCCCCCCCC(=O)OCC(COP(=O)([O-])OCC[N+](C)(C)C)OC(=O)CCCCCCCCCCCCC` (stereo not drawn) [1-stearoyl-2-myristoyl-], the “TM (main transition temperature)” value is 33 °C.
Under `CCCCCCCC/C=C\CCCCCCCC(=O)OC(COC(=O)CCCCCCCCCCCCCCCCC)COP(=O)([O-])OCC[N+](C)(C)C` (stereo not drawn) [1-stearoyl-2-oleoyl-] stands 7 °C.
For the compound `CCCCCCCCCCCCCCCC(=O)OCC(COP(=O)([O-])OCC[N+](C)(C)C)OC(=O)CCCCCCCCCCC` (stereo not drawn) [1-palmitoyl-2-lauroyl-], the “TM (main transition temperature)” value was determined as 11 °C.
Under `CCCCCCCC/C=C\CCCCCCCC(=O)OC(COC(=O)CCCCCCCCCCCCCCC)COP(=O)([O-])OCC[N+](C)(C)C` (stereo not drawn) [1-palmitoyl-2-oleoyl-] stands 5 °C.
Under `CCCCCCCCCCCCCCCCCCCCCCCC(=O)OCC(COP(=O)([O-])OCC[N+](C)(C)C)OC(=O)CCCCCCCCCCCCCCCCCCCCCCC` (stereo not drawn) [1,2-dilignoceroyl-] stands 80 °C; under `CCCCCCCCCCCCCCCCCC(=O)OC[C@H](COP(=O)([O-])OCC[N+](C)(C)C)OC(=O)CCCCCCCCCCCCCCCCC` [1,2-distearoyl-, 1,2-distearoyl-sn-glycero-3-phosphocholine], 56 °C; under `CCCCCCCC/C=C\CCCCCCCC(=O)OC(COC(=O)CCCCCCCCCCCCCCCCCCCCC)COP(=O)([O-])OCC[N+](C)(C)C` (stereo not drawn) [1-behenoyl-2-oleoyl-], 14 °C.
As for `CCCCCCCCCCCCCCCC(=O)OC[C@H](COP(=O)([O-])OCC[N+](C)(C)C)OC(=O)CCCCCCCCCCCCCCC` [1,2-dipalmitoyl-, 1,2-dipalmitoyl-sn-glycero-3-phosphocholine], the “TM (main transition temperature)” value worked out at 41 °C.
Turning to `CCCCCCCCCCCCCCCCCCCC(=O)OCC(COP(=O)([O-])OCC[N+](C)(C)C)OC(=O)CCCCCCCCCCCCCCCCCCC` (stereo not drawn) [1,2-diarachinoyl-], the “TM (main transition temperature)” value is 66 °C.
Under `CCCCCCCCCCCCCC(=O)OCC(COP(=O)([O-])OCC[N+](C)(C)C)OC(=O)CCCCCCCCCCCCC` (stereo not drawn) [1,2-dimyristoyl-] stands 23 °C.
As for `CCCCCCCCCCCCCCCC(=O)OCC(COP(=O)([O-])OCC[N+](C)(C)C)OC(=O)CCCCCCCCCCCCC` (stereo not drawn) [1-palmitoyl-2-myristoyl-], the “TM (main transition temperature)” value was 27 °C.
